Experiment: Solubility of redox-active electrolyte species in aqueous electrolyte

CCCCCCC[n+]1ccc(-c2cc[n+](CCCCCCC)cc2)cc1.[Br-].[Br-] [HV]
solubility (aqueous electrolyte): < 200 mM

CCCCCC[n+]1ccc(-c2cc[n+](CCCCCC)cc2)cc1 [Hexyl viologen]
solubility in the presence of NaBr (aqueous, in the presence of NaBr): < 500 mM

— US10770699B2, “Stable bromine charge storage in porous carbon electrodes using tetraalkylammonium bromides for reversible solid complexation” (The Regents of the University of California, priority 2014, dated 2020)
